Test results published in ChEMBL document CHEMBL5715260, “Selectivity Literature for EUbOPEN Chemogenomic Library” (2024).

Tests used:
[1] = biological target: Peroxisome proliferator-activated receptor delta (Homo sapiens) (UniProt Q03181); assay: Selectivity interaction (Reporter gene assay) EUB0000185b PPARD; set-up: recommended concentration 1 uM; conditions: screened at recom. conc., Selectivity number of off-targets 1.0, Selectivity number of targets 19.0, Source Knowledge inhouse
[2] = biological target: T1, Nuclear receptor subfamily 2 group C member 1 (Homo sapiens) (UniProt P13056); assay: Selectivity interaction (Reporter gene assay) EUB0000185b NR2C1; set-up: recommended concentration 1 uM
T1 sequence (whole entry): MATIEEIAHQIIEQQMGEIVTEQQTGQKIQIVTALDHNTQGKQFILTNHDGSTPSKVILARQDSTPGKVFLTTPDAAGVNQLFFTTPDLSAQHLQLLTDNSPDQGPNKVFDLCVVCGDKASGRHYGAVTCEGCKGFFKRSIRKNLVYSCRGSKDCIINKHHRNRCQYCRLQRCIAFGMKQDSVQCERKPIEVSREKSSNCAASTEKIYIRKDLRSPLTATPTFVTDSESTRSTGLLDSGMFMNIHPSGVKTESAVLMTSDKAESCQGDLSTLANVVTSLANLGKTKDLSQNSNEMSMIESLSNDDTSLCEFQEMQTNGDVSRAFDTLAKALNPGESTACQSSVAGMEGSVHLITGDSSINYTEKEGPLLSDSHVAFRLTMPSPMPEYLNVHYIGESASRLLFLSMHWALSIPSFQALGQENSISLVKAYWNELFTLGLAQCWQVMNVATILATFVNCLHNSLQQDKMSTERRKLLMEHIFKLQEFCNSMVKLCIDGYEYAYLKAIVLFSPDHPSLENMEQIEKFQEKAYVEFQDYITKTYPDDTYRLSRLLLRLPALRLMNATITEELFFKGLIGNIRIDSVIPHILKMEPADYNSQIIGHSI

[3] = biological target: Nuclear receptor subfamily 2 group E member 1 (Homo sapiens) (UniProt Q9Y466); assay: Selectivity interaction (Reporter gene assay) EUB0000185b NR2E1; set-up: recommended concentration 1 uM
Chain of Nuclear receptor subfamily 2 group E member 1 (Homo sapiens) (Q9Y466 whole entry): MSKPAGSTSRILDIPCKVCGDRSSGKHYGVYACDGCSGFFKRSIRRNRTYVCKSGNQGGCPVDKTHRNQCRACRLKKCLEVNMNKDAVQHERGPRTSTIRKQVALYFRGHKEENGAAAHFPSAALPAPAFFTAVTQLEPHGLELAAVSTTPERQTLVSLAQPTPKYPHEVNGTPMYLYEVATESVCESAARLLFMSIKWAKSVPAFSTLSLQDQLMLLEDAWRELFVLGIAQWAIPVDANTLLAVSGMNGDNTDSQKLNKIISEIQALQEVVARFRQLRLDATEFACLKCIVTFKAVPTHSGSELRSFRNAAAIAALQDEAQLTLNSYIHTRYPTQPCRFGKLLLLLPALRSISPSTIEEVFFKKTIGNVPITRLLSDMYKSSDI

[4] = biological target: T2, Retinoic acid receptor RXR-alpha (Homo sapiens) (UniProt P19793); assay: Selectivity interaction (Reporter gene assay) EUB0000185b RXRA; set-up: recommended concentration 1 uM; conditions: reference bexarotene 1 uM, Selectivity number of off-targets 0.0, Selectivity number of targets 1.0, Source Knowledge inhouse
T2 sequence (whole entry): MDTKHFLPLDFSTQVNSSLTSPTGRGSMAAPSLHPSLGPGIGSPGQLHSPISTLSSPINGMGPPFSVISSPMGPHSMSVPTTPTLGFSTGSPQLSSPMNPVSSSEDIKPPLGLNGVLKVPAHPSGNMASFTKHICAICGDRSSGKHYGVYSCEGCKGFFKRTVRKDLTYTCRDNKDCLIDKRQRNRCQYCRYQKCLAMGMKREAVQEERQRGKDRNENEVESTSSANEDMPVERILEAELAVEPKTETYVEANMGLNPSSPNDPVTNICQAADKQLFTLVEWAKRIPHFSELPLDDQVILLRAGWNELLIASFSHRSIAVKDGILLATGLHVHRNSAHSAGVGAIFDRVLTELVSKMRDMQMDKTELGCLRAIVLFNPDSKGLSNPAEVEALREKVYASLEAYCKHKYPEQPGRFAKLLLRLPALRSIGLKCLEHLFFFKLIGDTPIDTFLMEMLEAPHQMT

[5] = biological target: Steroidogenic factor 1 (Homo sapiens) (UniProt Q13285); assay: Selectivity interaction (Reporter gene assay) EUB0000185b NR5A1; set-up: recommended concentration 1 uM
Chain of Steroidogenic factor 1 (Homo sapiens) (Q13285 whole entry): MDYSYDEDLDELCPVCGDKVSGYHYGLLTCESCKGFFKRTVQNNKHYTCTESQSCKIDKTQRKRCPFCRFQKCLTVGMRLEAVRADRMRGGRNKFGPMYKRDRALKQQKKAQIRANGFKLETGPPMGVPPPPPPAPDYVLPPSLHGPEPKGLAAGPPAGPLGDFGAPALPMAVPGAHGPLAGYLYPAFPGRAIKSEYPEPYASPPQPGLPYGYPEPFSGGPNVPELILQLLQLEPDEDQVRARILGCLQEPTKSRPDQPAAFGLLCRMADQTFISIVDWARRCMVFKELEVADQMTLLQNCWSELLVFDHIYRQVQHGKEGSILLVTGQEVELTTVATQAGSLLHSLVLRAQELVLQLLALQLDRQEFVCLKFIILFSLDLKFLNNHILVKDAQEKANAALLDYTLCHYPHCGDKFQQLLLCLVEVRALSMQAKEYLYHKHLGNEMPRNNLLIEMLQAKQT

[6] = biological target: T3, Alpha trans-inducing protein (Human alphaherpesvirus 1) (UniProt A0A5J6DW59); assay: Selectivity interaction (Reporter gene assay) EUB0000185b UL48; set-up: recommended concentration 1 uM
T3 sequence (A0A5J6DW59 as listed by the source): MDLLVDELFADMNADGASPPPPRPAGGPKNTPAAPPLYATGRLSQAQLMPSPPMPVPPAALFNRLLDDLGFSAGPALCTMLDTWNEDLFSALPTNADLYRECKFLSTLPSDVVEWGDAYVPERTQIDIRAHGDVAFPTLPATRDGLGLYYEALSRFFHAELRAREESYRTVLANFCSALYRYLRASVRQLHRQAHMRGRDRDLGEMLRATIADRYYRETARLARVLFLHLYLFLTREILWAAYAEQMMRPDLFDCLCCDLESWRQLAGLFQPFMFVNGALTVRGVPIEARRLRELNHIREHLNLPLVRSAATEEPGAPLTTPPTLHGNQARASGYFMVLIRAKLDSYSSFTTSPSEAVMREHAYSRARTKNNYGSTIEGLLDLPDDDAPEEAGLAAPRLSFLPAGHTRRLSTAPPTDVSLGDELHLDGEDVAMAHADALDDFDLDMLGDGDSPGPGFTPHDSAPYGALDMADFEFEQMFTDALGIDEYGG

[7] = biological target: T4, Hepatocyte nuclear factor 4-alpha (Homo sapiens) (UniProt P41235); assay: Selectivity interaction (Reporter gene assay) EUB0000185b HNF4A; set-up: recommended concentration 1 uM
T4 sequence (whole entry): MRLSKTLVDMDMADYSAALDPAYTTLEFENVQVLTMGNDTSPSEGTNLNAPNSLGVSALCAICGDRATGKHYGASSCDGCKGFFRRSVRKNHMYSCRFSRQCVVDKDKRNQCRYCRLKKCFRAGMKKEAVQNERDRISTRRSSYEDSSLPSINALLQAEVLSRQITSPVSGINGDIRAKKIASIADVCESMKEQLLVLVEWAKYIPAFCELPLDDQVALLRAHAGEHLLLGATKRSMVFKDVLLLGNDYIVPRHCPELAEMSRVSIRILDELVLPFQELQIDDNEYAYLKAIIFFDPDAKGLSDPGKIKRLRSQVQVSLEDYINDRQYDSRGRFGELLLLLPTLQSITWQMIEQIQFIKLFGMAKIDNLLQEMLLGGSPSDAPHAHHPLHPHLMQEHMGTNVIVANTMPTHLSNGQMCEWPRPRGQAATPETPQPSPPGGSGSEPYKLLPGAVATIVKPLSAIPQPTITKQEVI

[8] = biological target: Nuclear receptor subfamily 4immunitygroup A member 1 (Homo sapiens) (UniProt P22736); assay: Selectivity interaction (Reporter gene assay) EUB0000185b NR4A1; set-up: recommended concentration 1 uM
Chain of Nuclear receptor subfamily 4immunitygroup A member 1 (Homo sapiens) (P22736 whole entry): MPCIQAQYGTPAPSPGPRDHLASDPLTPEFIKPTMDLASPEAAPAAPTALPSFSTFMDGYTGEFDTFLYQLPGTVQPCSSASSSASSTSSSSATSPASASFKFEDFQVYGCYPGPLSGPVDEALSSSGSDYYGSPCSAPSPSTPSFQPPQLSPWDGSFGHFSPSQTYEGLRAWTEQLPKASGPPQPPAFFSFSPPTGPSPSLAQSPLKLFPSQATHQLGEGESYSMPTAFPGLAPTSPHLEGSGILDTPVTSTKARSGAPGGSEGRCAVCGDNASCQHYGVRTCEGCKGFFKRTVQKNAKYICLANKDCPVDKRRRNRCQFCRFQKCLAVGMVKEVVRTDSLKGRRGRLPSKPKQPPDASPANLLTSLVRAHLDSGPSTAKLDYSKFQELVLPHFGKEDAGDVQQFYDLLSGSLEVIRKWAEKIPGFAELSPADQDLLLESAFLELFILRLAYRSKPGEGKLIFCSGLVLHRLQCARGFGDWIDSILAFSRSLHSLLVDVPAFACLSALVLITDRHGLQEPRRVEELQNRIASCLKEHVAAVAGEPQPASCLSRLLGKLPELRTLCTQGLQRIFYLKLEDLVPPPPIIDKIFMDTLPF

[9] = biological target: Steroidogenic factor 1 (Homo sapiens) (UniProt Q13285); assay: Selectivity interaction (Reporter gene assay) EUB0000184b NR5A1; set-up: recommended concentration 1 uM
[10] = biological target: T4, Hepatocyte nuclear factor 4-alpha (Homo sapiens); assay: Selectivity interaction (Reporter gene assay) EUB0000184b HNF4A; set-up: recommended concentration 1 uM
[11] = biological target: T1, Nuclear receptor subfamily 2 group C member 1 (Homo sapiens); assay: Selectivity interaction (Reporter gene assay) EUB0000184b NR2C1; set-up: recommended concentration 1 uM
[12] = biological target: Nuclear receptor subfamily 4immunitygroup A member 1 (Homo sapiens) (UniProt P22736); assay: Selectivity interaction (Reporter gene assay) EUB0000184b NR4A1; set-up: recommended concentration 1 uM
[13] = biological target: Nuclear receptor subfamily 2 group E member 1 (Homo sapiens) (UniProt Q9Y466); assay: Selectivity interaction (Reporter gene assay) EUB0000184b NR2E1; set-up: recommended concentration 1 uM
[14] = biological target: T2, Retinoic acid receptor RXR-alpha (Homo sapiens); assay: Selectivity interaction (Reporter gene assay) EUB0000184b RXRA; set-up: recommended concentration 1 uM
[15] = biological target: T3, Alpha trans-inducing protein (Human alphaherpesvirus 1); assay: Selectivity interaction (Reporter gene assay) EUB0000184b UL48; set-up: recommended concentration 1 uM
[16] = biological target: T3, Alpha trans-inducing protein (Human alphaherpesvirus 1); assay: Selectivity interaction (Reporter gene assay) EUB0000188b UL48; set-up: recommended concentration 1 uM
[17] = biological target: Nuclear receptor subfamily 4immunitygroup A member 1 (Homo sapiens) (UniProt P22736); assay: Selectivity interaction (Reporter gene assay) EUB0000188b NR4A1; set-up: recommended concentration 1 uM
[18] = biological target: Nuclear receptor subfamily 2 group E member 1 (Homo sapiens) (UniProt Q9Y466); assay: Selectivity interaction (Reporter gene assay) EUB0000188b NR2E1; set-up: recommended concentration 1 uM
[19] = biological target: Steroidogenic factor 1 (Homo sapiens) (UniProt Q13285); assay: Selectivity interaction (Reporter gene assay) EUB0000188b NR5A1; set-up: recommended concentration 1 uM
[20] = biological target: T1, Nuclear receptor subfamily 2 group C member 1 (Homo sapiens); assay: Selectivity interaction (Reporter gene assay) EUB0000188b NR2C1; set-up: recommended concentration 1 uM
[21] = biological target: T2, Retinoic acid receptor RXR-alpha (Homo sapiens); assay: Selectivity interaction (Reporter gene assay) EUB0000188b RXRA; set-up: recommended concentration 1 uM; conditions: reference bexarotene 1 uM, Selectivity number of off-targets 0.0, Selectivity number of targets 1.0, Source Knowledge inhouse
[22] = biological target: T4, Hepatocyte nuclear factor 4-alpha (Homo sapiens); assay: Selectivity interaction (Reporter gene assay) EUB0000188b HNF4A; set-up: recommended concentration 1 uM
[23] = biological target: T3, Alpha trans-inducing protein (Human alphaherpesvirus 1); assay: Selectivity interaction (Reporter gene assay) EUB0000040b UL48; set-up: recommended concentration 1 uM
[24] = biological target: Nuclear receptor subfamily 2 group E member 1 (Homo sapiens) (UniProt Q9Y466)
[25] = biological target: Nuclear receptor subfamily 4immunitygroup A member 1 (Homo sapiens) (UniProt P22736)
[26] = biological target: Nuclear receptor subfamily 2 group E member 1 (Homo sapiens) (UniProt Q9Y466); assay: Selectivity interaction (Reporter gene assay) EUB0000182b NR2E1; set-up: recommended concentration 1 uM
[27] = biological target: T1, Nuclear receptor subfamily 2 group C member 1 (Homo sapiens); assay: Selectivity interaction (Reporter gene assay) EUB0000182b NR2C1; set-up: recommended concentration 1 uM
[28] = biological target: T3, Alpha trans-inducing protein (Human alphaherpesvirus 1); assay: Selectivity interaction (Reporter gene assay) EUB0000182b UL48; set-up: recommended concentration 1 uM
[29] = biological target: Steroidogenic factor 1 (Homo sapiens) (UniProt Q13285); assay: Selectivity interaction (Reporter gene assay) EUB0000182b NR5A1; set-up: recommended concentration 1 uM
[30] = biological target: T4, Hepatocyte nuclear factor 4-alpha (Homo sapiens); assay: Selectivity interaction (Reporter gene assay) EUB0000182b HNF4A; set-up: recommended concentration 1 uM
[31] = biological target: Nuclear receptor subfamily 4immunitygroup A member 1 (Homo sapiens) (UniProt P22736); assay: Selectivity interaction (Reporter gene assay) EUB0000182b NR4A1; set-up: recommended concentration 1 uM
[32] = biological target: T2, Retinoic acid receptor RXR-alpha (Homo sapiens); assay: Selectivity interaction (Reporter gene assay) EUB0000182b RXRA; set-up: recommended concentration 1 uM; conditions: reference bexarotene 1 uM, Selectivity number of off-targets 0.0, Selectivity number of targets 1.0, Source Knowledge inhouse

Chain of Peroxisome proliferator-activated receptor delta (Homo sapiens) (Q03181 whole entry): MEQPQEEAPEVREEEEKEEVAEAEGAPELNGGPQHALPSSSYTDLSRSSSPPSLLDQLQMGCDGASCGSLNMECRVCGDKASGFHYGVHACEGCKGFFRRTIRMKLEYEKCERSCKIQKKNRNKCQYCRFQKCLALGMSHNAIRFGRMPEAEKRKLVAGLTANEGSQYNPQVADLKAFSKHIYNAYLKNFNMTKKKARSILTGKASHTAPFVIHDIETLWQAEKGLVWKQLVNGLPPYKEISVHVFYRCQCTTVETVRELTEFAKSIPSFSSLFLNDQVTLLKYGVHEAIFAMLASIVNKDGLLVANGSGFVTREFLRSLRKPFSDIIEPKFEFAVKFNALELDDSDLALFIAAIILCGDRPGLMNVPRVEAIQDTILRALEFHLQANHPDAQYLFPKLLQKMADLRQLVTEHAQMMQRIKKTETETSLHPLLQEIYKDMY

CC(C)(Sc1ccc(CCN(CCCCC2CCCCC2)C(=O)NC2CCCCC2)cc1)C(=O)O
Fold activation [1]: 19.1
Fold activation [2]: 1.49
Remaining activity [3]: 0.915
Relative activation [4]: 0.845%
Remaining activity [5]: 0.897
P-value [6]: 2.26e-05
Remaining activity [7]: 0.944
Fold activation [8]: 1.03

CC(C)c1onc(-c2c(Cl)cccc2Cl)c1COc1ccc(/C=C/c2cccc(C(=O)O)c2)c(Cl)c1
Remaining activity [9]: 0.927
Fold activation [10]: 1.24
Fold activation [11]: 1.33
Fold activation [12]: 1.41
Fold activation [13]: 1.12
Relative activation [14]: 0.803%
P-value [15]: 3.89e-13

CCCc1c(OCCCOc2ccc(OCC(=O)O)cc2)ccc(C(C)=O)c1O
P-value [16]: 1.09e-07
Fold activation [17]: 1.22
Fold activation [18]: 1.34
Remaining activity [19]: 0.985
Fold activation [20]: 1.36
Relative activation [21]: 1.18%
Fold activation [22]: 1.1

O=S(=O)(c1ccccc1)N(CC(F)(F)F)c1ccc(C(O)(C(F)(F)F)C(F)(F)F)cc1
P-value [23]: 0.000575
Remaining activity [24]: 0.742
Remaining activity [25]: 0.903

COC(=O)/C=C/c1cccc(N(Cc2ccc(-c3ccc(N(C)C)cc3)cc2)C(=O)C2CCCCC2)c1
Fold activation [26]: 1.24
Fold activation [27]: 1.38
P-value [28]: 2.38e-08
Fold activation [29]: 1.09
Fold activation [30]: 1.05
Fold activation [31]: 1.14
Relative activation [32]: 0.492%
